From ChEMBL document CHEMBL1201862, “PubChem BioAssay data set” (2004)
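Following 48 hours of exposure in 96-well plates, responses at five concentrations were used to interpolate endpoints linearly. GI50: concentration for 50% inhibition of growth.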 Calls of active or inactive are those of the source. No stated cut-off is given here; in the data, active = GI50 up to about 1.1 µM and inactive = higher.

Tests used:
Test in all cases: NCI tumour cell line growth inhibition, 48 h
DLD-1 = system: DLD-1
DMS-114 = system: DMS-114
DMS-273 = system: DMS-273
KM-20L2 = system: KM-20L2
LXFL 529 = system: LXFL 529
M19-MEL = system: M19-MEL
RXF 631 = system: RXF 631
XF498 = system: XF498
HOP-18 = system: HOP-18

O=C(c1ccccc1)C(c1ccccc1)C1(O)C(=O)Nc2ccccc21 (configuration not stated)
GI50 (DLD-1): > 100 µM (inactive)
GI50 (DMS-114): > 100 µM (inactive)
GI50 (DMS-273): > 100 µM (inactive)
GI50 (KM-20L2): > 100 µM (inactive)
GI50 (LXFL 529): > 100 µM (inactive)
GI50 (M19-MEL): > 100 µM (inactive)
GI50 (RXF 631): > 100 µM (inactive)
GI50 (XF498): > 100 µM (inactive)

O=C(Nc1cccc(NC(=O)c2cc(=O)c3ccccc3o2)n1)c1cc(=O)c2ccccc2o1
GI50 (DLD-1): 75.9 µM (inactive)
GI50 (DMS-114): 19.2 µM (inactive)
GI50 (DMS-273): 9.64 µM (inactive)
GI50 (KM-20L2): 68.4 µM (inactive)
GI50 (LXFL 529): 7.69 µM (inactive)
GI50 (M19-MEL): > 100 µM (inactive)
GI50 (RXF 631): 51.5 µM (inactive)

CC(C)(CN1CCCCC1)C(=O)/C=C/c1ccccc1
GI50 (DLD-1): 13.7 µM (inactive)
GI50 (DMS-114): 14.4 µM (inactive)
GI50 (DMS-273): 13.5 µM (inactive)
GI50 (KM-20L2): 10.3 µM (inactive)
GI50 (LXFL 529): 16.9 µM (inactive)
GI50 (M19-MEL): 18.9 µM (inactive)
GI50 (RXF 631): 21.1 µM (inactive)
GI50 (XF498): 14.7 µM (inactive)

CC(=O)Nc1ccccc1[S+]([O-])c1ccccc1 (configuration not stated)
GI50 (DLD-1): > 100 µM (inactive)
GI50 (DMS-114): > 100 µM (inactive)
GI50 (DMS-273): > 100 µM (inactive)
GI50 (HOP-18): > 100 µM (inactive)
GI50 (KM-20L2): > 100 µM (inactive)
GI50 (LXFL 529): > 100 µM (inactive)
GI50 (M19-MEL): > 100 µM (inactive)
GI50 (RXF 631): > 100 µM (inactive)
GI50 (XF498): > 100 µM (inactive)

Cc1ccc(S(=O)(=O)n2cc(/C=C/C#N)c(/C=C/C#N)c2)cc1
GI50 (DMS-114): 22.6 µM (inactive)
GI50 (DMS-273): 49.5 µM (inactive)
GI50 (HOP-18): 20.8 µM (inactive)
GI50 (KM-20L2): 93.3 µM (inactive)
GI50 (LXFL 529): > 100 µM (inactive)
GI50 (M19-MEL): > 100 µM (inactive)
GI50 (RXF 631): > 100 µM (inactive)
GI50 (XF498): > 100 µM (inactive)

O=C(CCc1nnc2s/c(=C\c3ccc([N+](=O)[O-])cc3)c(=O)n12)Nc1ccc(Cl)c(Cl)c1
GI50 (DLD-1): 19.3 µM (inactive)
GI50 (DMS-114): 17.3 µM (inactive)
GI50 (DMS-273): 24.5 µM (inactive)
GI50 (KM-20L2): 47.9 µM (inactive)
GI50 (LXFL 529): 13.4 µM (inactive)
GI50 (M19-MEL): 31.6 µM (inactive)
GI50 (RXF 631): 49.9 µM (inactive)
GI50 (XF498): 27.6 µM (inactive)

CC1=C2CCCC2=C/C(=N/Nc2ccc([N+](=O)[O-])cc2[N+](=O)[O-])CC1
GI50 (DLD-1): > 100 µM (inactive)
GI50 (DMS-114): > 100 µM (inactive)
GI50 (DMS-273): > 100 µM (inactive)
GI50 (HOP-18): > 100 µM (inactive)
GI50 (KM-20L2): > 100 µM (inactive)
GI50 (LXFL 529): > 100 µM (inactive)
GI50 (M19-MEL): > 100 µM (inactive)
GI50 (XF498): > 100 µM (inactive)

Cc1nnc2n1N=C(c1ccc(-c3ccc([N+](=O)[O-])cc3)o1)CS2
GI50 (DLD-1): > 100 µM (inactive)
GI50 (DMS-273): > 100 µM (inactive)
GI50 (KM-20L2): > 100 µM (inactive)
GI50 (LXFL 529): > 100 µM (inactive)
GI50 (M19-MEL): > 100 µM (inactive)

CC(=O)O[C@H]1CCN2C(=O)C=CC(OCc3ccccc3)C12 (some centres not stated)
GI50 (DLD-1): > 100 µM (inactive)
GI50 (DMS-114): > 100 µM (inactive)
GI50 (DMS-273): > 100 µM (inactive)
GI50 (HOP-18): > 100 µM (inactive)
GI50 (KM-20L2): > 100 µM (inactive)
GI50 (LXFL 529): > 100 µM (inactive)
GI50 (M19-MEL): > 100 µM (inactive)
GI50 (XF498): > 100 µM (inactive)

Oc1ccc(O)c(-n2cccn2)c1
GI50 (DLD-1): 63 µM (inactive)
GI50 (DMS-114): 29.6 µM (inactive)
GI50 (DMS-273): 75.5 µM (inactive)
GI50 (KM-20L2): > 100 µM (inactive)
GI50 (LXFL 529): 20.9 µM (inactive)
GI50 (M19-MEL): 30 µM (inactive)
GI50 (RXF 631): 50 µM (inactive)
GI50 (XF498): > 100 µM (inactive)

CS(=O)(=O)CSCSSCS(C)(=O)=O
GI50 (DLD-1): 30 µM (inactive)
GI50 (DMS-114): 27.3 µM (inactive)
GI50 (DMS-273): 25.9 µM (inactive)
GI50 (HOP-18): 37.6 µM (inactive)
GI50 (KM-20L2): 55.8 µM (inactive)
GI50 (LXFL 529): 18.1 µM (inactive)
GI50 (M19-MEL): > 57.9 µM (inactive)
GI50 (RXF 631): 32 µM (inactive)
GI50 (XF498): 32 µM (inactive)

O=C(c1ccc2c3c(ccc(C(=O)C(F)(F)F)c13)CC2)C(F)(F)F
GI50 (DLD-1): 88.1 µM (inactive)
GI50 (DMS-114): 41.4 µM (inactive)
GI50 (DMS-273): 27.9 µM (inactive)
GI50 (HOP-18): 53.2 µM (inactive)
GI50 (KM-20L2): 35.2 µM (inactive)
GI50 (LXFL 529): 40.3 µM (inactive)
GI50 (M19-MEL): 35.5 µM (inactive)
GI50 (XF498): 9.31 µM (inactive)

CN(C)CCNC(=O)c1cccc2c1nc(-c1ccccc1)c1ccccc12
GI50 (DLD-1): 2.33 µM (inactive)
GI50 (DMS-273): 2.91 µM (inactive)
GI50 (HOP-18): 14.7 µM (inactive)
GI50 (M19-MEL): 5.2 µM (inactive)
GI50 (RXF 631): 1.05 µM (active)

COc1ccc(CNc2nc3ccccc3nc2-c2cccs2)cc1OC
GI50 (DMS-273): 50.5 µM (inactive)
GI50 (HOP-18): > 100 µM (inactive)
GI50 (KM-20L2): 68.4 µM (inactive)
GI50 (LXFL 529): 15.7 µM (inactive)
GI50 (M19-MEL): 33.1 µM (inactive)
GI50 (RXF 631): 29.7 µM (inactive)
GI50 (XF498): 16 µM (inactive)

CCc1cc(Cc2cc(CC)c(NC(=O)C3=CC(=O)CC(c4ccc(OC)cc4)O3)c(CC)c2Cl)c(Cl)c(CC)c1NC(=O)C1=CC(=O)CC(c2ccc(OC)cc2)O1 (configuration not stated)
GI50 (DLD-1): 18.4 µM (inactive)
GI50 (DMS-114): 17.7 µM (inactive)
GI50 (DMS-273): 21.7 µM (inactive)
GI50 (HOP-18): 22.1 µM (inactive)
GI50 (KM-20L2): 26.7 µM (inactive)
GI50 (LXFL 529): 18 µM (inactive)
GI50 (M19-MEL): 17.3 µM (inactive)
GI50 (RXF 631): 89.7 µM (inactive)

CCC1=C(CC2NCCc3ccccc32)CC2c3cc(OC)c(OC)cc3CCN2C1 (configuration not stated)
GI50 (DLD-1): 2.49 µM (inactive)
GI50 (DMS-273): 0.618 µM (active)
GI50 (KM-20L2): 0.891 µM (active)
GI50 (LXFL 529): 0.995 µM (active)
GI50 (M19-MEL): 0.627 µM (active)
GI50 (RXF 631): 1.45 µM (inactive)
GI50 (XF498): 0.8 µM (active)

Cc1ccccc1NC(=O)C(=O)C(c1cnc2ccc([N+](=O)[O-])cc2n1)[N+](=O)[O-] (configuration not stated)
GI50 (DLD-1): > 100 µM (inactive)
GI50 (DMS-114): 43 µM (inactive)
GI50 (DMS-273): 44.5 µM (inactive)
GI50 (HOP-18): > 100 µM (inactive)
GI50 (KM-20L2): > 100 µM (inactive)
GI50 (M19-MEL): 83 µM (inactive)
GI50 (RXF 631): 70.3 µM (inactive)

N#C/C1=C(\N)CCSSSC1
GI50 (DLD-1): 31.7 µM (inactive)
GI50 (DMS-114): 32.7 µM (inactive)
GI50 (DMS-273): 33.3 µM (inactive)
GI50 (KM-20L2): 26.9 µM (inactive)
GI50 (LXFL 529): 33.1 µM (inactive)
GI50 (M19-MEL): 32.1 µM (inactive)
GI50 (RXF 631): 41.1 µM (inactive)
GI50 (XF498): 51.6 µM (inactive)

Cc1ccc(C(=O)NC(C)C)cc1/N=N/N(C)C
GI50 (DLD-1): 65 µM (inactive)
GI50 (DMS-273): > 100 µM (inactive)
GI50 (KM-20L2): > 100 µM (inactive)
GI50 (LXFL 529): > 100 µM (inactive)
GI50 (M19-MEL): > 100 µM (inactive)

CCCCCCCCCCCCCCCC(=O)OCC1OC(n2ccc(N)nc2=O)C(O)C1O (configuration not stated)
GI50 (DMS-273): 2.04 µM (inactive)
GI50 (HOP-18): 6.31 µM (inactive)
GI50 (KM-20L2): > 24.8 µM (inactive)
GI50 (LXFL 529): > 100 µM (inactive)
GI50 (M19-MEL): 2.26 µM (inactive)
GI50 (XF498): > 100 µM (inactive)
